{"source": "ChEMBL document CHEMBL4270560", "about": "“Novel curcumin analogue hybrids: Synthesis and anticancer activity” (Eur J Med Chem, 2018)", "key": {"SGC-7901 [1]": {"system": "SGC-7901", "assay": "Induction of mitochondrial membrane depolarization in human SGC7901 cells assessed as cells with intact mitochondrial membrane potential after 48 hrs by JC-1 staining based flow cytometric analysis (reference value: 87.3%)", "format": "functional"}, "SGC-7901 [2]": {"system": "SGC-7901", "assay": "Induction of mitochondrial membrane depolarization in human SGC7901 cells assessed as cells with mitochondrial membrane potential loss after 48 hrs by JC-1 staining based flow cytometric analysis (reference value: 9.29%)", "format": "functional"}, "SMMC-7721": {"system": "SMMC-7721", "assay": "Antiproliferative activity against human SMMC7721 cells after 48 hrs by MTT assay", "format": "functional, cell-based", "settings": "SMMC-7721, 48 h"}, "U-87 MG": {"system": "U-87 MG", "assay": "Antiproliferative activity against human U87 cells after 48 hrs by MTT assay", "format": "functional, cell-based, U-87MG ATCC"}, "SGC-7901 [3]": {"system": "SGC-7901", "assay": "Antiproliferative activity against human SGC7901 cells after 48 hrs by MTT assay", "format": "functional, cell-based", "settings": "SGC-7901, 48 h"}, "MGC-803": {"system": "MGC-803", "assay": "Antiproliferative activity against human MGC803 cells after 48 hrs by MTT assay", "format": "functional, cell-based", "settings": "MGC-803, 48 h"}}, "note": "pIC50: −log10 of the molar value."}
{"smiles": "N#CC(C#N)=NNc1cccc(Cl)c1", "note": "[CARBONYL CYANIDE M-CHLOROPHENYLHYDRAZONE]", "values": [{"measurement": "Activity", "setting": "SGC-7901 [1]", "value": 27.7, "unit": "%"}, {"measurement": "Activity", "setting": "SGC-7901 [2]", "value": 64.6, "unit": "%"}]}
{"smiles": "COc1cc(OC)c2c(=O)c(OCCCCOc3ccccc3/C=C/C(=O)/C=C/c3cccs3)c(-c3cc(OC)c(OC)c(OC)c3)oc2c1", "values": [{"measurement": "pIC50", "setting": "SMMC-7721", "value": 4.83}, {"measurement": "pIC50", "setting": "U-87 MG", "value": 4.68}, {"measurement": "pIC50", "setting": "SGC-7901 [3]", "value": 4.58}, {"measurement": "pIC50", "setting": "MGC-803", "value": 4.69}]}
{"smiles": "COc1cc(OC)c2c(=O)c(OCCCOc3ccccc3/C=C/C(=O)/C=C/c3cccc([N+](=O)[O-])c3)c(-c3cc(OC)c(OC)c(OC)c3)oc2c1", "values": [{"measurement": "pIC50", "setting": "SMMC-7721", "value": 5.04}, {"measurement": "pIC50", "setting": "U-87 MG", "value": 5.10}, {"measurement": "pIC50", "setting": "SGC-7901 [3]", "value": 5.27}, {"measurement": "pIC50", "setting": "MGC-803", "value": 5.24}]}
{"smiles": "COc1cccc2c1C(=O)c1c(O)c3c(c(O)c1C2=O)C[C@@](O)(C(=O)CO)C[C@@H]3O[C@H]1C[C@H](N)[C@H](O)[C@H](C)O1", "note": "[DOXORUBICIN]", "values": [{"measurement": "pIC50", "setting": "SMMC-7721", "value": 6.14}, {"measurement": "pIC50", "setting": "U-87 MG", "value": 6.32}, {"measurement": "pIC50", "setting": "SGC-7901 [3]", "value": 6.06}, {"measurement": "pIC50", "setting": "MGC-803", "value": 6.40}]}
{"smiles": "O=C(/C=C/c1ccc(Oc2cc(=O)oc3ccccc23)cc1)/C=C/c1ccccn1", "values": [{"measurement": "pIC50", "setting": "SMMC-7721", "value": 4.45}, {"measurement": "pIC50", "setting": "U-87 MG", "value": 4.29}, {"measurement": "pIC50", "setting": "SGC-7901 [3]", "value": 4.60}, {"measurement": "pIC50", "setting": "MGC-803", "value": 4.71}]}
{"smiles": "COc1cc(OC)c2c(=O)c(OCCCOc3ccc(/C=C/C(=O)/C=C/c4scnc4C)cc3)c(-c3cc(OC)c(OC)c(OC)c3)oc2c1", "values": [{"measurement": "pIC50", "setting": "SMMC-7721", "value": 4.46}, {"measurement": "pIC50", "setting": "U-87 MG", "value": 4.39}, {"measurement": "pIC50", "setting": "SGC-7901 [3]", "value": 4.31}, {"measurement": "pIC50", "setting": "MGC-803", "value": 4.50}]}
{"smiles": "COc1cc(OC)c2c(=O)c(OCCCOc3ccccc3/C=C/C(=O)/C=C/c3scnc3C)c(-c3cc(OC)c(OC)c(OC)c3)oc2c1", "values": [{"measurement": "pIC50", "setting": "SMMC-7721", "value": 5.14}, {"measurement": "pIC50", "setting": "U-87 MG", "value": 5.02}, {"measurement": "pIC50", "setting": "SGC-7901 [3]", "value": 5.32}, {"measurement": "pIC50", "setting": "MGC-803", "value": 5.25}]}
{"smiles": "COc1cc(OC)c2c(=O)c(OCCCCOc3ccc(/C=C/C(=O)/C=C/c4ccccn4)cc3)c(-c3cc(OC)c(OC)c(OC)c3)oc2c1", "values": [{"measurement": "pIC50", "setting": "SMMC-7721", "value": 5.77}, {"measurement": "pIC50", "setting": "U-87 MG", "value": 5.33}, {"measurement": "pIC50", "setting": "SGC-7901 [3]", "value": 5.62}, {"measurement": "pIC50", "setting": "MGC-803", "value": 5.71}]}
{"smiles": "COc1cc(OC)c2c(=O)c(OCCCCOc3ccccc3/C=C/C(=O)/C=C/c3ccc(Cl)cc3)c(-c3cc(OC)c(OC)c(OC)c3)oc2c1", "values": [{"measurement": "pIC50", "setting": "SMMC-7721", "value": 4.38}, {"measurement": "pIC50", "setting": "U-87 MG", "value": 4.68}, {"measurement": "pIC50", "setting": "SGC-7901 [3]", "value": 5.04}, {"measurement": "pIC50", "setting": "MGC-803", "value": 4.73}]}
{"smiles": "COc1ccc(/C=C/C(=O)/C=C/c2ccc(Oc3cc(=O)oc4ccccc34)cc2)cc1OC", "values": [{"measurement": "pIC50", "setting": "SGC-7901 [3]", "value": 4.31}, {"measurement": "pIC50", "setting": "MGC-803", "value": 4.31}]}
{"smiles": "O=C(/C=C/c1ccc(Oc2cc(=O)oc3ccccc23)cc1)/C=C/c1cccnc1", "values": [{"measurement": "pIC50", "setting": "SMMC-7721", "value": 4.48}, {"measurement": "pIC50", "setting": "U-87 MG", "value": 4.43}, {"measurement": "pIC50", "setting": "SGC-7901 [3]", "value": 4.76}, {"measurement": "pIC50", "setting": "MGC-803", "value": 4.61}]}
{"smiles": "O=C(/C=C/c1ccc(Cl)cc1)/C=C/c1ccc(Oc2cc(=O)oc3ccccc23)cc1", "values": [{"measurement": "pIC50", "setting": "SGC-7901 [3]", "value": 4.32}, {"measurement": "pIC50", "setting": "MGC-803", "value": 4.26}]}
{"smiles": "COc1cc(OC)c2c(=O)c(OCCCCOc3ccccc3/C=C/C(=O)/C=C/c3cccc([N+](=O)[O-])c3)c(-c3cc(OC)c(OC)c(OC)c3)oc2c1", "values": [{"measurement": "pIC50", "setting": "SMMC-7721", "value": 5.14}, {"measurement": "pIC50", "setting": "U-87 MG", "value": 5.00}, {"measurement": "pIC50", "setting": "SGC-7901 [3]", "value": 5.39}, {"measurement": "pIC50", "setting": "MGC-803", "value": 5.30}]}
{"smiles": "COc1cc(OC)c2c(=O)c(OCCCCOc3ccc(/C=C/C(=O)/C=C/c4scnc4C)cc3)c(-c3cc(OC)c(OC)c(OC)c3)oc2c1", "values": [{"measurement": "pIC50", "setting": "SMMC-7721", "value": 4.19}, {"measurement": "pIC50", "setting": "U-87 MG", "value": 4.23}, {"measurement": "pIC50", "setting": "SGC-7901 [3]", "value": 4.38}, {"measurement": "pIC50", "setting": "MGC-803", "value": 4.26}]}
{"smiles": "COc1cc(OC)c2c(=O)c(OCCCCOc3ccccc3/C=C/C(=O)/C=C/c3ccco3)c(-c3cc(OC)c(OC)c(OC)c3)oc2c1", "values": [{"measurement": "pIC50", "setting": "SMMC-7721", "value": 5.07}, {"measurement": "pIC50", "setting": "U-87 MG", "value": 4.97}, {"measurement": "pIC50", "setting": "SGC-7901 [3]", "value": 5.05}, {"measurement": "pIC50", "setting": "MGC-803", "value": 5.10}]}
